Values quoted from earlier work in patent US20210137919A1, “PHARMACEUTICAL FORMULATIONS, METHOD FOR PRODUCING A PHARMACEUTICAL FORMULATION, AND MEDICAMENT COMPRISING SAME” (SmaWa GmbH, priority 2018, published 2021).

solubility in water: 2 to 3.2 µg/mL
SMILES: CN1CC(=O)N2[C@H](c3ccc4c(c3)OCO4)c3[nH]c4ccccc4c3C[C@@H]2C1=O [tadalafil]
